Several values for one entry are separate records, joined by “and”; a condition that tells them apart may be missing. Equal entries are not always repeated. Inconclusive results and toxic doses are left out.
Tested on: B6C3F1 mice, B16 melanoma ip, median survival T/C
Assay: NCI In Vivo Anticancer Drug Screen. Data for tumor model B16 Melanoma (intraperitoneal) in B6C3F1 mice
Details: endpoint: median survival time, schedule: Q01DX009 (ip), higher = longer survival
Procedure: The antitumor activity of compounds was measured in mice bearing transplantable tumors. Survival or tumor size were measured and the results are expressed as the measurement made in the treated group (T) divided by the measurement made in the vehicle treated control group (C). The tumor model used in this assay is B16 Melanoma (intraperitoneal) in B6C3F1 mice

[1] = dose: 100.0 mg/kg/injection, vehicle: saline with Tween-80
[2] = dose: 200.0 mg/kg/injection, vehicle: saline with Tween-80
[3] = dose: 100.0 mg/kg/injection, vehicle: Klucel (hydroxypropylcellulose) (HPC)
[4] = dose: 200.0 mg/kg/injection, vehicle: Klucel (hydroxypropylcellulose) (HPC)
[5] = dose: 400.0 mg/kg/injection, vehicle: Klucel (hydroxypropylcellulose) (HPC)
[6] = dose: 1.56 mg/kg/injection, vehicle: saline with Tween-80
[7] = dose: 25.0 mg/kg/injection, vehicle: saline
[8] = dose: 50.0 mg/kg/injection, vehicle: saline
[9] = dose: 100.0 mg/kg/injection, vehicle: saline
[10] = dose: 200.0 mg/kg/injection, vehicle: saline
[11] = dose: 400.0 mg/kg/injection, vehicle: saline
[12] = dose: 12.5 mg/kg/injection, vehicle: saline with Tween-80
[13] = dose: 25.0 mg/kg/injection, vehicle: saline with Tween-80
[14] = dose: 50.0 mg/kg/injection, vehicle: saline with Tween-80

O=[N+]([O-])O.O=[N+]([O-])O.[NH-]C1CCCCC1[NH-].[Pt+2] (stereo not given)
T/C (dose: 0.25 mg/kg/injection, vehicle: other): 123 % of control | T/C (dose: 1.0 mg/kg/injection, vehicle: other): 163 % of control

N#CCCN(C(=S)Nc1cccc(C(F)(F)F)c1)C1CCCCC1
T/C (dose: 12.5 mg/kg/injection, vehicle: suspension in saline): 102 % of control | T/C (dose: 25.0 mg/kg/injection, vehicle: suspension in saline): 100 % of control | T/C (dose: 50.0 mg/kg/injection, vehicle: suspension in saline): 101 % of control | T/C [1]: 113 % of control | T/C (dose: 100.0 mg/kg/injection, vehicle: suspension in saline): 107 % of control | T/C [2]: 94 % of control | T/C (dose: 200.0 mg/kg/injection, vehicle: suspension in saline): 113 % of control | T/C (dose: 400.0 mg/kg/injection, vehicle: saline with Tween-80): 89 % of control | T/C (dose: 400.0 mg/kg/injection, vehicle: suspension in saline): 103 % of control

CC(NC(=O)C(CO)NC(=O)CN)C(=O)O (stereo not given)
T/C [3]: 98 % of control | T/C [4]: 98 % of control | T/C [5]: 98 % of control

O=C(NC(Cc1cn(Cc2ccccc2)cn1)C(=O)O)OCC1c2ccccc2-c2ccccc21 (stereo not given)
T/C [3]: 111 % of control | T/C [4]: 103 % of control | T/C [5]: 115 % of control

CN(C)c1cccc(F)c1C(=O)NC(=O)Nc1ccc(Cl)cc1
T/C (dose: 37.5 mg/kg/injection, vehicle: saline with Tween-80): 97 % of control | T/C (dose: 75.0 mg/kg/injection, vehicle: saline with Tween-80): 111 % of control | T/C (dose: 150.0 mg/kg/injection, vehicle: saline with Tween-80): 101 % of control

CN(C)CCN1C(=O)c2cccc3cc([N+](=O)[O-])cc(c23)C1=O
T/C (dose: 0.37 mg/kg/injection, vehicle: saline with Tween-80): 105 % of control | T/C (dose: 0.75 mg/kg/injection, vehicle: saline with Tween-80): 107 % of control | T/C (dose: 1.5 mg/kg/injection, vehicle: saline with Tween-80): 112 % of control | T/C [6]: 117 % of control | T/C (dose: 3.0 mg/kg/injection, vehicle: saline with Tween-80): 102 % of control | T/C (dose: 12.0 mg/kg/injection, vehicle: saline with Tween-80): 88 % of control

CC(=O)NCCSSCCCCS(=O)O
T/C [7]: 96 % of control | T/C [8]: 103 % of control | T/C [9]: 98 % of control | T/C [10]: 111 % of control | T/C [11]: 96 % of control

O=C1NCC(Br)C(=O)N1 (stereo not given)
T/C (dose: 6.25 mg/kg/injection, vehicle: saline + Tween-80 + alcohol): 90 % of control | T/C (dose: 12.5 mg/kg/injection, vehicle: saline + Tween-80 + alcohol): 99 % of control and 101 % of control | T/C [12]: 102 % of control | T/C (dose: 25.0 mg/kg/injection, vehicle: saline + Tween-80 + alcohol): 100 % of control and 106 % of control | T/C [13]: 94 % of control and 105 % of control | T/C (dose: 50.0 mg/kg/injection, vehicle: saline + Tween-80 + alcohol): 114 % of control and 105 % of control | T/C [14]: 114 % of control | T/C (dose: 100.0 mg/kg/injection, vehicle: saline + Tween-80 + alcohol): 109 % of control and 100 % of control | T/C [1]: 116 % of control | T/C (dose: 200.0 mg/kg/injection, vehicle: saline + Tween-80 + alcohol): 96 % of control

Cc1cn(C2CC(O)C(CO)O2)c(=O)[nH]c1=O (stereo not given)
T/C (dose: 12.5 mg/kg/injection, vehicle: saline): 99 % of control | T/C [7]: 98 % of control | T/C [8]: 102 % of control | T/C [9]: 98 % of control | T/C [10]: 98 % of control | T/C [11]: 115 % of control

O=NN(CCCl)C(=O)Oc1cc(Cl)c(Cl)cc1Cl
T/C (dose: 3.12 mg/kg/injection, vehicle: Klucel (hydroxypropylcellulose) (HPC)): 99 % of control | T/C (dose: 6.25 mg/kg/injection, vehicle: Klucel (hydroxypropylcellulose) (HPC)): 99 % of control | T/C (dose: 12.5 mg/kg/injection, vehicle: Klucel (hydroxypropylcellulose) (HPC)): 188 % of control | T/C (dose: 25.0 mg/kg/injection, vehicle: Klucel (hydroxypropylcellulose) (HPC)): 169 % of control and 205 % of control

O=C1NC(c2ccccc2)N=C2Oc3ccccc3C=C12 (stereo not given)
T/C [6]: 101 % of control | T/C (dose: 3.12 mg/kg/injection, vehicle: saline with Tween-80): 103 % of control | T/C (dose: 3.13 mg/kg/injection, vehicle: saline with Tween-80): 97 % of control | T/C (dose: 6.25 mg/kg/injection, vehicle: saline with Tween-80): 118 % of control and 124 % of control | T/C [12]: 116 % of control and 122 % of control | T/C [14]: 113 % of control

O=C(O)c1cc(C(=O)O)c(C(=O)O)cc1C(=O)O.[NH2-].[NH2-].[NH2-].[NH2-].[Pt+2].[Pt+2]
T/C (dose: 0.12 mg/kg/injection, vehicle: water): 110 % of control | T/C (dose: 0.25 mg/kg/injection, vehicle: water): 104 % of control | T/C (dose: 0.5 mg/kg/injection, vehicle: water): 109 % of control and 110 % of control | T/C (dose: 1.0 mg/kg/injection, vehicle: water): 114 % of control and 118 % of control | T/C (dose: 8.0 mg/kg/injection, vehicle: water): 154 % of control

O=C1c2ccccc2CCC1(Br)Br
T/C (dose: 2.5 mg/kg/injection, vehicle: Klucel (hydroxypropylcellulose) (HPC)): 107 % of control | T/C (dose: 10.0 mg/kg/injection, vehicle: Klucel (hydroxypropylcellulose) (HPC)): 90 % of control

COC(=O)C12OCC34C(CC5C(C)C6=CC(=O)OC6=CC5(C)C3C(O)C1O)OC(=O)C(OC(C)=O)C24 (stereo not given)
T/C (dose: 0.12 mg/kg/injection, vehicle: saline + alcohol): 110 % of control | T/C (dose: 0.25 mg/kg/injection, vehicle: saline + alcohol): 109 % of control | T/C (dose: 0.5 mg/kg/injection, vehicle: saline + alcohol): 105 % of control | T/C (dose: 1.0 mg/kg/injection, vehicle: saline + alcohol): 103 % of control | T/C (dose: 2.0 mg/kg/injection, vehicle: saline + alcohol): 109 % of control

CC(C)C1OC(=O)/C=C/C=C/C=C/C=C/C=C/CC(O)C(C)C(O)CC(O)CC(O)CC(O)CC(O)CC(O)CC(O)/C=C/C1C (stereo not given)
T/C (dose: 1.56 mg/kg/injection, vehicle: saline): 101 % of control | T/C (dose: 3.12 mg/kg/injection, vehicle: saline): 100 % of control | T/C (dose: 6.25 mg/kg/injection, vehicle: saline): 102 % of control

O=C(CCl)Oc1ccc(-c2ccccc2)cc1Br
T/C [14]: 98 % of control | T/C [1]: 90 % of control | T/C [2]: 87 % of control

Cc1[nH]ccc(=O)c1O
T/C (dose: 16.0 mg/kg/injection, vehicle: saline with Tween-80): 103 % of control | T/C (dose: 32.0 mg/kg/injection, vehicle: saline with Tween-80): 103 % of control | T/C (dose: 64.0 mg/kg/injection, vehicle: saline with Tween-80): 109 % of control | T/C (dose: 128.0 mg/kg/injection, vehicle: saline with Tween-80): 111 % of control | T/C (dose: 256.0 mg/kg/injection, vehicle: saline with Tween-80): 118 % of control

O=C(Nc1nncs1)c1cccs1
T/C [12]: 110 % of control | T/C [13]: 105 % of control | T/C [14]: 101 % of control | T/C [1]: 108 % of control and 106 % of control | T/C [2]: 121 % of control and 104 % of control

Reference: PubChem BioAssay AID200 (DTP/NCI, 2004)
